Measured values taken from paper PMC7413254 (Nature Communications, 2020).

Legend:
Format in all cases: cell-based
[1] = target: T1, PfCRT^Dd2 (Plasmodium falciparum, UniProt Q9N623, A220S/I356T/K76T/M74I/N326S/N75E/Q271E/R371I); assay: [3H]CQ uptake into Xenopus oocytes, cis-inhibition by unlabelled solute; conditions: PfCRTDd2 oocytes, background [3H]CQ accumulation subtracted, normalised to oocyte type control
In short: (§1)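 Transport runs from the acidic bath into the cytosol, analogous to PfCRT-mediated efflux out of the vacuole. Non-expressing oocytes act as background.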

[2] = target: T2, PfCRT^Ecu1110 (Plasmodium falciparum, UniProt Q9N623, A220S/I356L/K76T/N326D); assay: as above; conditions: for PfCRT-mediated [3H]CQ transport, cis-inhibition (% PfCRTEcu1110 control): PfCRTEcu1110 oocytes, background [3H]CQ accumulation subtracted, normalised to oocyte type control; for [3H]CQ transport (% PfCRTEcu1110 control), cis-inhibition, PfCRTEcu1110: PfCRT-mediated component (background subtracted), sheet title says normalised to PfCRTDd2 control, mean ± SEM, SEM
T2 sequence (Q9N623 whole entry A220S/I356L/K76T/N326D): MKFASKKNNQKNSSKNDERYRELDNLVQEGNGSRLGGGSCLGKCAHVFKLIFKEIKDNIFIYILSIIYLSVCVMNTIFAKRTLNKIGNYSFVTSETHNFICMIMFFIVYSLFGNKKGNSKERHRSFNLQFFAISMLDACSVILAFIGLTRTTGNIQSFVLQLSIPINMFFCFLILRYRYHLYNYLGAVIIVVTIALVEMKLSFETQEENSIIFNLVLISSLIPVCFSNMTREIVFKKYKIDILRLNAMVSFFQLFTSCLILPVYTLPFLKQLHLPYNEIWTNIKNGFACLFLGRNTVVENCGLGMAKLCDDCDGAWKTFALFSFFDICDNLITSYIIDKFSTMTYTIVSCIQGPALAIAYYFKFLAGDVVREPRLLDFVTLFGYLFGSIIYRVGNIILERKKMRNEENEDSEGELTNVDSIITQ
In short: as §1

[3] = target: PfCRT^3D7 (Plasmodium falciparum, UniProt Q8IBZ9); assay: cell-based; conditions: PfCRT3D7 oocytes, normalised to oocyte type control
Chain of PfCRT^3D7 (Q8IBZ9 59-398): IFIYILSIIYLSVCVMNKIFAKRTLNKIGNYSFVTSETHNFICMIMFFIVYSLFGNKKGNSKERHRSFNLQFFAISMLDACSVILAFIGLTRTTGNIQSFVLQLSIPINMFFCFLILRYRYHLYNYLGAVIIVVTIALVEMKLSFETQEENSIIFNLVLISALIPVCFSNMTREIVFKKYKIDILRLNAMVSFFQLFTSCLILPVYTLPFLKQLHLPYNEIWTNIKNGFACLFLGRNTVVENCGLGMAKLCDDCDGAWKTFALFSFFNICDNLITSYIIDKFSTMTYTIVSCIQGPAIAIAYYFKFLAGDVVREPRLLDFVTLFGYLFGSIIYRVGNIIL
In short: (§2)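 Oocytes (ten per treatment, ≥4 independent frogs/days) were preloaded by injecting VF-6 in 25 nL ND96 at pH 5.0, 5.5, 6.0 or 7.0, or Na^+-free choline buffer, then uptake run 1.5 h, 27.5 °C, ND96 pH 5.5 by default. Internal concentrations assumed ~400 nL oocyte volume.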

[4] = target: T1, PfCRT^Dd2; assay: cell-based; conditions: for PfCRT-mediated [3H]CQ transport, trans-stimulation (% PfCRTDd2 control): PfCRTDd2 oocytes, normalised to oocyte type control; for [3H]CQ transport (% PfCRTDd2 control), trans-stimulation, PfCRTDd2: PfCRT-mediated component (background subtracted), mean ± SEM, SEM
In short: as §2

[5] = target: T2, PfCRT^Ecu1110; assay: cell-based; conditions: for PfCRT-mediated [3H]CQ transport, trans-stimulation (% PfCRTEcu1110 control): PfCRTEcu1110 oocytes, normalised to oocyte type control; for [3H]CQ transport (% PfCRTDd2 control), trans-stimulation, PfCRTEcu1110: PfCRT-mediated component (background subtracted), sheet title says normalised to PfCRTDd2 control, mean ± SEM, SEM
In short: as §2

[6] = [test solute]i = 5 mM (intracellular)
[7] = [test solute]i = 45 mM (intracellular; 30 mM for some solutes due to solubility)
[8] = [test solute]i = 5 mM (injected)
[9] = [test solute]i = 45 mM (30 mM for some solutes due to solubility)

T1 sequence (Q9N623 whole entry A220S/I356T/K76T/M74I/N326S/N75E/Q271E/R371I): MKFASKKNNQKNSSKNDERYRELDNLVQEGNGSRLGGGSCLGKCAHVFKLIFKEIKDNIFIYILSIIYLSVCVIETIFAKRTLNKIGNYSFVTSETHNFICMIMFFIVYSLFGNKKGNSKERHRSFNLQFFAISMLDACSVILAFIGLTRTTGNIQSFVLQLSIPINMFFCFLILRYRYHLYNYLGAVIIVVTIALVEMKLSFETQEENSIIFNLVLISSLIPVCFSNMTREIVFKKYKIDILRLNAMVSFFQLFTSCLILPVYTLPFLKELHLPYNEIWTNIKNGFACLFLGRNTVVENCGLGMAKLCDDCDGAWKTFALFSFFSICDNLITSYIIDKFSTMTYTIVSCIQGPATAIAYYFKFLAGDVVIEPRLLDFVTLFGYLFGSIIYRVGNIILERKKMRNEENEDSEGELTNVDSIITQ

Substance: LSDLHAHK [LK-8]
- PfCRT-mediated [3H]CQ transport, cis-inhibition (% PfCRTDd2 control) ([1]; [test solute] = 0.5 mM): 55 ± 2.3 % PfCRTDd2 control
- PfCRT-mediated [3H]CQ transport, cis-inhibition (% PfCRTDd2 control) ([1]; [test solute] = 1 mM): 51 ± 0.1 % PfCRTDd2 control
- PfCRT-mediated [3H]CQ transport, cis-inhibition (% PfCRTDd2 control) ([1]; [test solute] = 2 mM): 25 ± 0.3 % PfCRTDd2 control
- PfCRT-mediated [3H]CQ transport, cis-inhibition (% PfCRTEcu1110 control) ([2]; [test solute] = 0.5 mM): 62 ± 3.1 % PfCRTEcu1110 control
- PfCRT-mediated [3H]CQ transport, cis-inhibition (% PfCRTEcu1110 control) ([2]; [test solute] = 1 mM): 48 ± 2.2 % PfCRTEcu1110 control
- PfCRT-mediated [3H]CQ transport, cis-inhibition (% PfCRTEcu1110 control) ([2]; [test solute] = 2 mM): 39 ± 2.4 % PfCRTEcu1110 control
- PfCRT-mediated [3H]CQ transport, trans-stimulation (% PfCRT3D7 control) [3, 6]: 98 ± 3.4 % PfCRT3D7 control
- PfCRT-mediated [3H]CQ transport, trans-stimulation (% PfCRT3D7 control) [3, 7]: 96 ± 1.3 % PfCRT3D7 control
- PfCRT-mediated [3H]CQ transport, trans-stimulation (% PfCRTDd2 control) [4, 6]: 98 ± 3.3 % PfCRTDd2 control
- PfCRT-mediated [3H]CQ transport, trans-stimulation (% PfCRTDd2 control) [4, 7]: 97 ± 3.1 % PfCRTDd2 control
- PfCRT-mediated [3H]CQ transport, trans-stimulation (% PfCRTEcu1110 control) [5, 6]: 97 ± 1.4 % PfCRTEcu1110 control
- PfCRT-mediated [3H]CQ transport, trans-stimulation (% PfCRTEcu1110 control) [5, 7]: 98 ± 3.4 % PfCRTEcu1110 control

Substance: LDNLK [LK-5]
- PfCRT-mediated [3H]CQ transport, cis-inhibition (% PfCRTDd2 control) ([1]; [test solute] = 0.5 mM): 31 ± 1.4 % PfCRTDd2 control
- PfCRT-mediated [3H]CQ transport, cis-inhibition (% PfCRTDd2 control) ([1]; [test solute] = 1 mM): 21 ± 1.9 % PfCRTDd2 control
- PfCRT-mediated [3H]CQ transport, cis-inhibition (% PfCRTDd2 control) ([1]; [test solute] = 2 mM): 13 ± 0.7 % PfCRTDd2 control
- PfCRT-mediated [3H]CQ transport, cis-inhibition (% PfCRTEcu1110 control) ([2]; [test solute] = 0.5 mM): 40 ± 1.4 % PfCRTEcu1110 control
- PfCRT-mediated [3H]CQ transport, cis-inhibition (% PfCRTEcu1110 control) ([2]; [test solute] = 1 mM): 30 ± 1.9 % PfCRTEcu1110 control
- PfCRT-mediated [3H]CQ transport, cis-inhibition (% PfCRTEcu1110 control) ([2]; [test solute] = 2 mM): 21 ± 1.9 % PfCRTEcu1110 control
- [3H]CQ transport (% PfCRTEcu1110 control), cis-inhibition, PfCRTEcu1110 ([2]; [test solute] = 0.5 mM): 13 ± 0.1 % PfCRTEcu1110 control
- [3H]CQ transport (% PfCRTEcu1110 control), cis-inhibition, PfCRTEcu1110 ([2]; [test solute] = 1 mM): 9.0 ± 0.03 % PfCRTEcu1110 control
- [3H]CQ transport (% PfCRTEcu1110 control), cis-inhibition, PfCRTEcu1110 ([2]; [test solute] = 2 mM): 7.0 ± 0.03 % PfCRTEcu1110 control
- PfCRT-mediated [3H]CQ transport, trans-stimulation (% PfCRT3D7 control) [3, 6]: 127 ± 4.2 % PfCRT3D7 control
- PfCRT-mediated [3H]CQ transport, trans-stimulation (% PfCRT3D7 control) [3, 7]: 180 ± 7.2 % PfCRT3D7 control
- PfCRT-mediated [3H]CQ transport, trans-stimulation (% PfCRTDd2 control) [4, 6]: 100 ± 1.3 % PfCRTDd2 control
- PfCRT-mediated [3H]CQ transport, trans-stimulation (% PfCRTDd2 control) [4, 7]: 94 ± 3.2 % PfCRTDd2 control
- [3H]CQ transport (% PfCRTDd2 control), trans-stimulation, PfCRTDd2 [4, 8]: 100 ± 1.3 % PfCRTDd2 control
- [3H]CQ transport (% PfCRTDd2 control), trans-stimulation, PfCRTDd2 [4, 9]: 94 ± 3.2 % PfCRTDd2 control
- PfCRT-mediated [3H]CQ transport, trans-stimulation (% PfCRTEcu1110 control) [5, 6]: 97 ± 4.2 % PfCRTEcu1110 control
- PfCRT-mediated [3H]CQ transport, trans-stimulation (% PfCRTEcu1110 control) [5, 7]: 136 ± 5.1 % PfCRTEcu1110 control
- [3H]CQ transport (% PfCRTDd2 control), trans-stimulation, PfCRTEcu1110 [5, 8]: 29 ± 1.4 % PfCRTEcu1110 control
- [3H]CQ transport (% PfCRTDd2 control), trans-stimulation, PfCRTEcu1110 [5, 9]: 41 ± 2.1 % PfCRTEcu1110 control
